Reference: publication PMC8651256 (Environmental science & technology, 2021)
Entries after “also recorded” stand apart in the source; their conditions may differ.

Columns and labels:
[1] = biological target: human serum albumin (HSA) (Homo sapiens, UniProt P02768); test: Differential scanning fluorimetry; details: for EC50 / ΔTm / Kd / HSA binding (in words): 0.125 mM HSA; for EC50: 4-parameter variable slope model; for EC50 / Kd: mean ± SD; for ΔTm: maximal melting temperature shift; for HSA binding (in words): DSF; for thermal shift profile at different reaction volumes (volatility check): volumes of 10, 20, 50 and 200 μL per sealed well
[2] = DMSO as solvent; cited from earlier work
[3] = PFAS, single-site ligand binding model

Chain of human serum albumin (HSA) (P02768 25-609): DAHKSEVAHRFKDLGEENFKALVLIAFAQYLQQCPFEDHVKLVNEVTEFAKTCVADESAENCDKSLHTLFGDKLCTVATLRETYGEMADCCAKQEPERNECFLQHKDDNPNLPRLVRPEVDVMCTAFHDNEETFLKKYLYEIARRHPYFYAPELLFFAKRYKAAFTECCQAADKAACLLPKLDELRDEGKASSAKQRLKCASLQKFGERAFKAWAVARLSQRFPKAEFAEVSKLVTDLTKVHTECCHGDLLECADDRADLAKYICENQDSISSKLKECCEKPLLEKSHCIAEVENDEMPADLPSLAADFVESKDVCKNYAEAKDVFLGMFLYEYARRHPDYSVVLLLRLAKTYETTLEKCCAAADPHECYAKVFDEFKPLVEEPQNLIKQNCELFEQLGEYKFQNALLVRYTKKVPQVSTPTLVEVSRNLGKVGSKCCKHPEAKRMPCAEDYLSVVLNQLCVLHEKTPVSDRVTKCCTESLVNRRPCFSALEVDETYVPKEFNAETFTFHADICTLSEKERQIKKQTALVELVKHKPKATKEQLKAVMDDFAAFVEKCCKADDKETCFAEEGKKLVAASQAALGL

Compound | EC50 ([1]; PFAS) [µM] | ΔTm ([1]; PFAS) [°C] | Kd [1, 3] [µM] | further results
O=C(O)CCC(F)(F)C(F)(F)C(F)(F)C(F)(F)C(F)(F)F [5:3 FTCA, 2H,2H,3H,3H-perfluorooctanoic acid] | 1480 ± 240 | 3.62 ± 0.14 | 620 ± 100 | –
FC(OC(F)(F)C(F)(F)C(F)(F)F)C(F)(F)F (stereo not shown) [E1, 1,1,1,2,2,3,3-heptafluoro-3-(1,2,2,2-tetrafluoroethoxy)propane] | – | – | – | HSA binding (in words) [1]: bound by albumin; EC50 ([1]; EC50, PFAS): 2340 ± 560 µM
O=S(=O)(O)CCC(F)(F)C(F)(F)C(F)(F)C(F)(F)C(F)(F)C(F)(F)F [6:2 FTSA, 2H,2H,3H,3H-perfluorooctane-1-sulfonate] | 470 ± 290 | 3.60 ± 0.47 | 370 ± 340 | thermal shift profile at different reaction volumes (volatility check) [1]: no differences
O=S(=O)(O)C(F)(F)C(F)(F)C(F)(F)C(F)(F)C(F)(F)C(F)(F)F [PFHxS, perfluorohexanesulfonic acid] | – | – | – | thermal shift profile at different reaction volumes (volatility check) [1]: no differences
O=C(O)C(F)(F)C(F)(F)C(F)(F)C(F)(F)C(F)(F)F [PFHxA, Perfluorohexanoic acid] | 1400 ± 270 | 10.6 ± 0.24 | 1640 ± 470 | –
O=C(O)C(F)(F)C(F)(F)C(F)(F)C(F)(F)C(F)(F)C(F)(F)C(F)(F)C(F)(F)F [PFNA, perfluorononanoic acid] | 600 ± 230 | 13.4 ± 0.34 | 580 ± 210 | –
OCCC(F)(F)C(F)(F)C(F)(F)C(F)(F)F [4:2 FTOH, 1H,1H,2H,2H-perfluorohexane-1-ol] | – | 0 ± 0 | – | HSA binding (in words) [1]: not bound by HSA; also recorded: did not bind HSA; thermal shift profile at different reaction volumes (volatility check) [1]: no differences
O=C(O)CCC(F)(F)C(F)(F)C(F)(F)F [3:3 FTCA, 2H,2H,3H,3H-perfluorohexanoic acid] | 2060 ± 510 | 2.24 ± 0.062 | 1710 ± 470 | –
OCCC(F)(F)C(F)(F)C(F)(F)C(F)(F)C(F)(F)C(F)(F)F [6:2 FTOH, 1H,1H,2H,2H-perfluorooctanol] | – | 0 ± 0 | – | HSA binding (in words) [1]: not bound by HSA; also recorded: did not bind HSA; thermal shift profile at different reaction volumes (volatility check) [1]: no differences
O=C(O)C(F)(F)C(F)(F)C(F)(F)F [PFBA, perfluorobutanoic acid] | 2610 ± 470 | 6.48 ± 0.18 | 2570 ± 780 | –
O=C(O)C(F)(F)C(F)(F)C(F)(F)C(F)(F)C(F)(F)C(F)(F)C(F)(F)C(F)(F)C(F)(F)C(F)(F)F [PFunDA, Perfluoroundecanoic acid] | 1490 ± 48 | 9.02 ± 0.47 | 1360 ± 1060 | –
O=C(O)C(F)(F)C(F)(F)C(F)(F)C(F)(F)C(F)(F)C(F)(F)C(F)(F)F [PFOA, perfluorooctanoic acid] | – | – | – | EC50 ([1]; EC50, PFAS): 840 ± 150 µM; Kd ([1]; Kd, PFOA stock in HEPES-buffered saline (HBS)): 830 ± 270 µM; Kd ([1]; Kd, PFOA stock in methanol (30% in HBS)): 830 ± 150 µM
O=C(O)CCC(F)(F)C(F)(F)C(F)(F)C(F)(F)C(F)(F)C(F)(F)C(F)(F)C(F)(F)F [8:3 FTCA, 2,H,2H,3H,3H-perfluoroundecanoate] | 1160 ± 420 | 10.01 ± 0.17 | 970 ± 170 | –
O=S(=O)(O)C(F)(F)C(F)(F)C(F)(F)C(F)(F)C(F)(F)C(F)(F)C(F)(F)C(F)(F)F [PFOS, perfluorooctanesulfonic acid] | 1130 ± 320 | 16.2 ± 0.90 | – | –
O=S(=O)(O)CCC(F)(F)C(F)(F)C(F)(F)C(F)(F)F [4:2 FTSA, 2H,2H,3H,3H-perfluorohexanesulfonic acid] | 1450 ± 340 | 3.49 ± 0.12 | 1070 ± 470 | –
O=S(=O)(O)C(F)(F)C(F)(F)C(F)(F)C(F)(F)F [PFBS, perfluorobutanesulfonic acid] | 1720 ± 560 | 11.9 ± 0.11 | 1650 ± 690 | –
O=C(O)CCC(F)(F)C(F)(F)C(F)(F)C(F)(F)C(F)(F)C(F)(F)F [6:3 FTCA, 2,H,2H,3H,3H-perfluorononanoic acid] | 840 ± 210 | 9.50 ± 0.20 | 810 ± 230 | –
O=C(O)C(F)(F)C(F)(F)C(F)(F)C(F)(F)C(F)(F)C(F)(F)C(F)(F)C(F)(F)C(F)(F)F [PFDA, perfluorodecanoic acid] | 1110 ± 170 | 17.2 ± 0.13 | 1190 ± 590 | –
O=S(=O)(O)C(F)(F)C(F)(F)OC(F)(C(F)(F)F)C(F)(F)OC(F)C(F)(F)F (stereo not shown) [Nafion bp2] | 1900 ± 590 | 12.4 ± 0.17 | 1510 ± 370 | –
O=C(O)C(F)(OC(F)(F)C(F)(F)C(F)(F)F)C(F)(F)F (stereo not shown) [HFPO-DA, hexafluoropropylene oxide dimer acid] | 1830 ± 870 | 13.7 ± 0.17 | 1600 ± 550 | time to rapid and complete conversion of HFPO-DA to E1 [2]: under 4 h
O=C(O)C(F)(F)C(F)(F)C(F)(F)C(F)(F)F [PFPeA, perfluoropentanoic acid] | 2140 ± 420 | 13.1 ± 0.066 | 2100 ± 560 | –
